{
  "source": "patent US12173088B2",
  "about": "“Anti-microbial peptides” (priority 2018, dated 2024)",
  "key": {"[1]": {"tested_on": "E. coli ampC E416-7", "format": "cell-based, Escherichia coli", "conditions": "Table 7", "text": "The bacterial strains used include the Gram-positive strains Staphylococcus aureus USA300 LAC, S. epidermidis 1457, and Bacillus subtilis 168, as well as the Gram-negative isolates Escherichia coli K12 and Acinetobacter baumannii B2367-12. Additional, drug resistance strains include Gram-positive Enterococcus faecium V286-17 (VRE) and S. aureus M838-17 (MRSA) and Gram-negative E. coli E423-17, E. coli E416-17 (ampC), and P. aeruginosa E411-17. Bacteria were cultivated in tryptic soy broth (TSB) (BD Bioscience, MD).\nThe antibacterial activity of peptides was evaluated using a standard broth microdilution protocol with minor modifications as described (Mishra, et al. (2012) J. Am. Chem. Soc., 134:12426-12429). In brief, logarithmic phase bacterial cultures (i.e., optical density at 600 nm≈0.5) were diluted to OD600 0.001 and partitioned into a 96-well polystyrene microplate at 90 μL per well. After treatment with 10 μL of peptide solutions two fold diluted to various concentrations, microplates were incubated at 37° C. overnight and read on a ChroMate® 4300 Microplate Reader at 630 nm (GMI, Ramsey, MN). […] To study the influence of medium conditions on the antimicrobial activity of peptides against S. aureus USA300, up to 200 mM sodium chloride (NaCl), 2 mM of calcium chloride, 5-10% of human serum, mouse plasma, fluid, or supernatants of tissue homogenates were included into the assays."}, "[2]": {"tested_on": "clinical strains of methicillin-resistant and susceptible S. aureus", "test": "microbe, parasite or virus in culture", "conditions": "Staphylococcus aureus"}},
  "note": "Peptide text beside a SMILES is read from it.",
  "data": [
    {"compound": "CC(C)C[C@H](NC(=O)[C@H](CC(C)C)NC(=O)[C@H](CCCCN)NC(=O)[C@H](CC(C)C)NC(=O)CNC(=O)[C@H](CC(C)C)NC(=O)[C@H](CO)NC(=O)[C@H](CC(C)C)NC(=O)[C@H](CC(C)C)NC(=O)[C@H](CC(C)C)NC(=O)[C@H](CCCCN)NC(=O)[C@H](CC(C)C)NC(=O)CN)C(N)=O", "note": "[DFT561, GLKLLLSLGLKLL] (H-GLKLLLSLGLKLL-NH2; N-terminus and C-terminus assumed)", "values": [
      {"measurement": "MIC E. coli ampC E416-7", "setting": "[1]", "value": ">50", "unit": "µM"}
    ]},
    {"compound": "CN[C@H](CC(C)C)C(=O)N[C@H]1C(=O)N[C@@H](CC(N)=O)C(=O)N[C@H]2C(=O)N[C@H]3C(=O)N[C@H](C(=O)N[C@H](C(=O)O)c4cc(O)cc(O)c4-c4cc3ccc4O)[C@H](O)c3ccc(c(Cl)c3)Oc3cc2cc(c3O[C@@H]2O[C@H](CO)[C@@H](O)[C@H](O)[C@H]2O[C@H]2C[C@](C)(N)[C@H](O)[C@H](C)O2)Oc2ccc(cc2Cl)[C@H]1O", "note": "[Vancomycin]", "values": [
      {"measurement": "MIC", "setting": "[2]; MSSA, strain B243-16 MSSA", "value": 0.5, "unit": "µM"},
      {"measurement": "MIC", "setting": "[2]; MSSA, strain B254-16 MSSA", "value": 0.5, "unit": "µM"},
      {"measurement": "MIC", "setting": "[2]; MSSA, strain B255-16 MSSA", "value": 1, "unit": "µM"},
      {"measurement": "MIC", "setting": "[2]; MSSA, strain B262-16 MSSA", "value": 0.5, "unit": "µM"},
      {"measurement": "MIC", "setting": "[2]; MSSA, strain B269-16 MSSA", "value": 1, "unit": "µM"},
      {"measurement": "MIC", "setting": "[2]; NEWMAN, strain Newman", "value": 1, "unit": "µM"},
      {"measurement": "MIC", "setting": "[2]; USA200, strain USA200", "value": 0.5, "unit": "µM"},
      {"measurement": "MIC", "setting": "[2]; USA300, strain USA300", "value": 0.5, "unit": "µM"},
      {"measurement": "MIC", "setting": "[2]; USA400, strain USA400", "value": 1, "unit": "µM"},
      {"measurement": "MIC", "setting": "[2]; strain M106-16", "value": 1, "unit": "µM"},
      {"measurement": "MIC", "setting": "[2]; strain M108-16", "value": 1, "unit": "µM"},
      {"measurement": "MIC", "setting": "[2]; strain M109-16", "value": 0.5, "unit": "µM"},
      {"measurement": "MIC", "setting": "[2]; strain M111-16", "value": 0.5, "unit": "µM"},
      {"measurement": "MIC", "setting": "[2]; strain M112-16", "value": 0.5, "unit": "µM"},
      {"measurement": "MIC", "setting": "[2]; strain M113-16", "value": 1, "unit": "µM"},
      {"measurement": "MIC", "setting": "[2]; strain M114-16", "value": 1, "unit": "µM"},
      {"measurement": "MIC", "setting": "[2]; strain M116-16", "value": 0.5, "unit": "µM"},
      {"measurement": "MIC", "setting": "[2]; strain M117-16", "value": 0.5, "unit": "µM"},
      {"measurement": "MIC", "setting": "[2]; strain M118-16", "value": 1, "unit": "µM"},
      {"measurement": "MIC", "setting": "[2]; strain M119-16", "value": 0.5, "unit": "µM"},
      {"measurement": "MIC", "setting": "[2]; strain M120-16", "value": 0.5, "unit": "µM"},
      {"measurement": "MIC", "setting": "[2]; strain M121-16", "value": 1, "unit": "µM"},
      {"measurement": "MIC", "setting": "[2]; strain M122-16", "value": 1, "unit": "µM"},
      {"measurement": "MIC", "setting": "[2]; strain M123-16", "value": 0.5, "unit": "µM"},
      {"measurement": "MIC", "setting": "[2]; strain M126-16", "value": 0.5, "unit": "µM"},
      {"measurement": "MIC", "setting": "[2]; strain M127-16", "value": 0.5, "unit": "µM"},
      {"measurement": "MIC", "setting": "[2]; strain M128-16", "value": 1, "unit": "µM"},
      {"measurement": "MIC", "setting": "[2]; strain M129-16", "value": 0.5, "unit": "µM"},
      {"measurement": "MIC", "setting": "[2]; strain M130-16", "value": 0.5, "unit": "µM"},
      {"measurement": "MIC", "setting": "[2]; strain UAMS-1", "value": 2, "unit": "µM"},
      {"measurement": "MIC", "setting": "[2]; strain mu50", "value": 2, "unit": "µM"}
    ]}
  ]
}
